{"source": "patent US12202805B2", "about": "“Process for preparing (5S)-{[2-(4-carboxyphenyl)ethyl] |2-(2-{|3-chloro-4'-(trifluoromethyl)biphenyl-4-yl]methoxy}phenyl)ethyl]aminol-5,6,7,8-tetrahydroquinoline-2-carboxylic acid and its crystalline forms for use as pharmaceutically active compound” (Bayer Aktiengesellschaft, priority 2021, dated 2025)", "key": {"[1]": {"system": "animal model of pulmonary hypertension", "settings": "cited from earlier work"}, "Caco-2 permeability test": {"experiment": "Caco-2 permeability test", "format": "in vitro ADME, human", "settings": "human, Caco-2, 2.4 μM", "protocol": "E-3. Further Characterization E-3.1 Caco-2 Permeability Test\nThe in vitro permeation of a test compound across a Caco-2 cell monolayer is a well-established assay system to predict the permeability from the gastro-intestinal tract (1). The permeability of the compounds of the present invention in such Caco-2 cells was determined as described below:\nHuman caco-2 cells were seeded on 24-well insert plates and were allowed to grow for 14-16 days. For permeability studies, the test compounds were dissolved in DMSO and diluted to the final test concentration of 2 μM with transport buffer [Hanks' Buffered Salt Solution, Gibco/Invitrogen, further supplemented with glucose and HEPES]. For determination of the apical to basolateral permeability (PappA-B), the test compound solution was added to the apical side of the cell monolayer and transport buffer to the basolateral side of the monolayer; for determination of the basolateral to apical permeability (PappB-A), the test compound solution was added to the basolateral side of the cell monolayer and transport buffer to the apical side of the monolayer. Samples were taken from the donor compartment at the beginning of the experiment to confirm mass balance. After an incubation of 2 h at 37° C., samples were taken from both compartments. Samples were analyzed by LC-MS/MS, and the apparent permeability coefficients were calculated. Lucifer Yellow permeability was assayed for each cell monolayer to ensure cell monolayer integrity, and the permeability of Atenolol (low permeability marker) and Sulfasalazine (marker for active excretion) was determined for each batch as quality control."}, "[2]": {"system": "thromboxane A2 challenged PAH-minipig", "experiment": "Haemodynamics in the anesthetized thromboxane challenged minipig, inhaled nebulized solution (PAP, BP)", "format": "in vivo, Göttingen Minipigs", "settings": "10 μg/kg nominal dose inhaled, mean", "protocol": "E-1 Haemodynamics in the Anesthetized Thromboxane Challenged Minipig\nLung Selectivity and Duration of Action\nHealthy Göttingen Minipigs® Ellegaard (Ellegaard, Denmark) of both sexes and having a weight of 2-6 kg were used. The animals were sedated by i.m. administration of about 25 mg/kg ketamine and about 10 mg/kg azaperone. Anaesthesia was initiated by i.v. administration of about 2 mg/kg ketamine and about 0.3 mg/kg midazolam. Maintenance of anaesthesia was by i.v. administration of about 7.5-30 mg/kg/h ketamine and about 1-4 mg/kg/h midazolam (rate of infusion 1-4 ml/kg/h) and about 150 μg/kg/h pancuronium bromide (for example Pancuronium-Actavis). After intubation, the animals were ventilated by the ventilator at a constant respiratory volume (10-12 ml/kg, 35 breaths/min; Avea®, Viasys Healthcare, USA, or Engström Carestation, GE Healthcare, Freiburg, Germany) such that an end-tidal CO2 concentration of about 5% was achieved. Ventilation was performed with room air, enriched with about 40% oxygen (normoxia). For the measurement of the haemodynamic parameters such as pulmonary arterial pressure (PAP), blood pressure (BP) and heart rate (HR), catheters were inserted into the carotid artery to measure the blood pressure, and a Swan-Ganz® catheter was introduced in a flow-directed manner via the jugular vein into the pulmonary artery. The haemodynamic signals were recorded and evaluated by means of pressure transducers (Combitransducer, B. Braun, Melsungen, Germany)/amplifiers and Ponemah® as data acquisition software.\nAfter the instruments have been placed into the animals, continuous infusion of a thromboxane A2 analog was initiated to increase the pulmonary arterial pressure. About 0.3-0.75 μg/kg/min of 9,11-didesoxy-9α,11α-epoxymethanoprostaglandine F2α (U-44069; Sigma, cat. no. D0400, or Cayman Chemical Company, cat. no. 16440), dissolved in physiological saline, were infused to achieve an increase of the mean pulmonary arterial pressure to values of over 25 mmHg. 30 minutes after the start of the infusion, a plateau was reached, and the experiment was started.\nThe test substances were administered as i.v. infusion or by inhalation. For the preparation of the solution for inhalation, the following procedure was adopted: For an animal having a weight of 4 kg, to prepare the stock solution (300 μg/kg), 1.2 mg of the test compound were weighed out and dissolved in a total volume of 3 ml (1% DMSO, 99% 0.2% strength citric acid solution, 1 n aqueous sodium hydroxide solution to adjust the pH to 8). The solution was then diluted to the concentration employed using 0.2% strength citric acid which had been adjusted to pH 8 beforehand with aqueous sodium hydroxide solution. In each test, 3 ml of the solution of test compound per 4 kg animal were nebulized in the inhalation arm of the respiratory circuit using the Aeroneb® Pro nebulizer system. The mean nebulization time was about 7 min from the start of the nebulization.\nWith respect to a prediction of the duration of action for human studies comparative example 11 was compared in the PAH minipig model after inhaled application to Ventavis® (=Iloprost, 10 μg/kg nominal dose), which we used as a clinical reference. […] Therefore, the duration of action is more than 6 times longer compared to Ventavis in this preclinical animal model."}, "[3]": {"system": "patients with severe pulmonary hypertension", "settings": "cited from earlier work"}}, "data": [{"molecule": "O=C(O)CCCCN(CCc1ccccc1OCc1ccc(CCc2ccccc2)cc1)Cc1ccc(C(=O)O)cc1", "note": "[comparative example 1]", "values": [{"measurement": "effect on pulmonary arterial pressure", "setting": "[1]; inhalative administration in the form of microparticles", "value": "dose-dependent selective reduction of the pulmonary arterial pressure"}, {"measurement": "duration of action", "setting": "[1]; inhalative administration", "value": "did not have a sufficient duration of action"}]}, {"molecule": "COC(=O)N(C)c1c(N)nc(-c2nn(Cc3ccccc3F)c3ncccc23)nc1N", "note": "[Comparative example 2 (Riociguat)]", "values": [{"measurement": "efflux ratio at 2 h, 2.4 μM", "setting": "Caco-2 permeability test", "value": "11 ± 3.3"}, {"measurement": "Papp A→B at 2 h, 2.4 μM", "setting": "Caco-2 permeability test; 2 h at 37° C., read-out: Papp A − B (mean +/− SD)", "value": "3.5 ± 0.84", "unit": "×10⁻⁶ cm/s"}, {"measurement": "Papp B→A at 2 h, 2.4 μM", "setting": "Caco-2 permeability test; 2 h at 37° C., read-out: Papp B − A (mean +/− SD)", "value": "36.7 ± 7.5", "unit": "×10⁻⁶ cm/s"}]}, {"molecule": "CC#CCC(C)[C@H](O)/C=C/[C@@H]1[C@H]2C/C(=C/CCCC(=O)O)C[C@H]2C[C@H]1O", "note": "(stereo partly shown) [Ventavis ®]", "values": [{"measurement": "PAP % changes vs prevalue", "setting": "[2]; time 0 min", "value": 0, "unit": "%"}, {"measurement": "PAP % changes vs prevalue", "setting": "[2]; time 10 min", "value": "−30.3", "unit": "%"}, {"measurement": "PAP % changes vs prevalue", "setting": "[2]; time 20 min", "value": "−20.7", "unit": "%"}, {"measurement": "PAP % changes vs prevalue", "setting": "[2]; time 30 min", "value": "−6.9", "unit": "%"}, {"measurement": "PAP % changes vs prevalue", "setting": "[2]; time 40 min", "value": 1.7, "unit": "%"}, {"measurement": "PAP % changes vs prevalue", "setting": "[2]; time 50 min", "value": 4.9, "unit": "%"}]}, {"molecule": "CCCCC[C@H](O)CC[C@@H]1[C@H]2Cc3cccc(OCC(=O)O)c3C[C@H]2C[C@H]1O", "note": "[Treprostinil]", "values": [{"measurement": "mean change in PVR from baseline", "setting": "[3]; inhaled, single administration, historical comparison", "value": "approximately −30%"}]}, {"molecule": "CC#CCC(C)[C@H](O)/C=C/[C@@H]1[C@H]2C/C(=C/CCCC(=O)O)C[C@H]2C[C@H]1O", "note": "(stereo partly shown) [Ventavis]", "values": [{"measurement": "duration of action on haemodynamics (PVR)", "setting": "[3]; clinical studies", "value": "about 60 min"}]}]}
